# Test results: patent publication US10952992B2, “Methods of treating intraocular pressure with activators of Tie-2” (Aerpio Pharmaceuticals, Inc., priority 2015, dated 2021)
# Where “and” joins values, the source holds several entries; their conditions need not be identical. Equal values may be shown once.
# Experiments:
# [1] = Example 2 vitreous humor concentrations; assay type: in vivo, male New Zealand White rabbits; settings: for Average Peak Concentration, Vitreous Humor: suspension
# Procedure: (§1) To measure the concentration of Compound 1 in plasma and ocular tissues following topical ocular, subcutaneous, and intravitreal administration, New Zealand White rabbits were administered Compound 1, and plasma and ocular samples were collected at pre-determined time points. Compound 1 formulations were prepared fresh on each day of dosing.
# (§2) Ocular tissue samples from both eyes of each animal were collected and weights were recorded. Plasma and ocular tissue sample concentrations of Compound 1 were determined by LC-MS/MS.
# (§3) Animals were anesthetized for ocular (topical) and intravitreal dosing following the 12IA7 IACUC protocol. Each rabbit received a bolus dose of test formulation either via topical ocular administration 3 times daily on Days 1 and 2 (at 0, 6, and 12 hours), and once on Day 3 (at 0 hours) into both eyes; via intravitreal administration into both eyes once on Day 1 (at 0 hours); or via subcutaneous administration 2 times daily on Days 1 and 2 (at 0 and 8 hours) and once daily on Day 3 (at 0 hours). Doses were given within an approximately 1 hour window each day where applicable.
# On Day 1, for intravitreal administration, or on Day 3, for topical ocular and subcutaneous administration, at the appropriate ocular tissue collection time points, animals were euthanized and both eyes were enucleated immediately. Following enucleation, each eye was rinsed with phosphate-buffered saline. Ocular tissue samples from both eyes of each animal were collected at predetermined time points and weights were recorded. All the samples were frozen immediately on dry ice, and stored at −60° C. to −80° C. pending bioanalysis.
# (§4) An LC-MS/MS method was developed for the determination of Compound 1 in rabbit aqueous tissues (plasma, aqueous and vitreous humor) and solid ocular tissue samples. A pre-study standard curve was analyzed to determine the specificity, range, and lower limit of quantitation of the method. Plasma and tissue homogenate study samples were extracted and analyzed. All the samples were treated identically to the standards.
# (§5) One eight-point standard curve was used in each analytical batch. To be accepted, each batch must have had at least five of eight standards with accuracy within ±20% of nominal, except at the lower limit of quantification (LLOQ), where ±25% was acceptable.
# [2] = Example 2 plasma concentrations and pharmacokinetics after topical ocular, subcutaneous, intravitreal administration; assay type: in vivo, male New Zealand White rabbits
# Procedure: as §1, §2
# New Zealand White rabbits weighing 2.5 to 3.5 kg were used on this study. Rabbits were housed one per cage. Animals were not fasted and only healthy animals with no ocular illness were used. Two rabbits per group were sacrificed at each of four ocular tissue sampling time points for a total of eight rabbits per group.
# as §3
# Each blood sample was collected on Day 3 post dose at pre-determined time points from the rabbits via an ear vessel and placed into chilled polypropylene tubes containing sodium heparin as an anticoagulant. Samples were spun by centrifuge at 4° C. and 3,000× g for 5 minutes. Samples were maintained chilled throughout processing. Each plasma sample was placed on dry ice and stored in a freezer at −60° C. to −80° C. pending bioanalysis.
# as §4, §5
# Pharmacokinetic parameters were calculated from the time course of the plasma concentration. The maximum plasma concentration (Cmax) and time to the maximum plasma drug concentration (Tmax) were the observed values for each concentration-time profiles. The area under the plasma drug concentration-time curve (AUClast, with last being from time 0 to the last quantifiable point) was calculated using the trapezoidal formula. The mean residence time MRTlast was calculated as a ratio of AUMClast (area under the first movement curve) to AUClast.
# [3] = Group 3 (subcutaneous 5 mg/kg/dose, suspension), 0.5 hr
# [4] = Group 3 (subcutaneous 5 mg/kg/dose, suspension), 2.0 hr, BLOQ = below 0.2 ng/mL
# [5] = Group 5 (intravitreal 2.5 mg/eye, suspension), 6.0 hr
# [6] = Group 5 (intravitreal 2.5 mg/eye, suspension), 24 hr
# [7] = Group 5 (intravitreal 2.5 mg/eye, suspension), 48 hr
# [8] = Group 3: subcutaneous 5 mg/kg/dose, 40 mM phosphate buffer pH 4.0 + 2.5% dextrose suspension
# [9] = Group 3: subcutaneous 5 mg/kg/dose, 40 mM phosphate buffer pH 4.0 + 2.5% dextrose suspension, 0.25 hr
# [10] = Group 3: subcutaneous 5 mg/kg/dose, 40 mM phosphate buffer pH 4.0 + 2.5% dextrose suspension, 0.50 hr
# [11] = Group 3: subcutaneous 5 mg/kg/dose, 40 mM phosphate buffer pH 4.0 + 2.5% dextrose suspension, 1.0 hr
# [12] = Group 3: subcutaneous 5 mg/kg/dose, 40 mM phosphate buffer pH 4.0 + 2.5% dextrose suspension, 2.0 hr
# [13] = Group 3: subcutaneous 5 mg/kg/dose, 40 mM phosphate buffer pH 4.0 + 2.5% dextrose suspension, 4.0 hr
# [14] = Group 3: subcutaneous suspension, normalized by nominal dose 5 mg/kg
# [15] = Group 5: intravitreal 2.5 mg/eye (~1.54 mg/kg), 40 mM phosphate buffer pH 4.0 suspension
# [16] = Group 5: intravitreal 2.5 mg/eye (~1.54 mg/kg), 40 mM phosphate buffer pH 4.0 suspension, 1.0 hr
# [17] = Group 5: intravitreal 2.5 mg/eye (~1.54 mg/kg), 40 mM phosphate buffer pH 4.0 suspension, 3.0 hr
# [18] = Group 5: intravitreal 2.5 mg/eye (~1.54 mg/kg), 40 mM phosphate buffer pH 4.0 suspension, 6.0 hr
# [19] = Group 5: intravitreal 2.5 mg/eye (~1.54 mg/kg), 40 mM phosphate buffer pH 4.0 suspension, 24.0 hr
# [20] = Group 5: intravitreal 2.5 mg/eye (~1.54 mg/kg), 40 mM phosphate buffer pH 4.0 suspension, 48.0 hr
# [21] = Group 5: intravitreal 2.5 mg/eye (~1.54 mg/kg), 40 mM phosphate buffer pH 4.0 suspension, 72.0 hr
# [22] = Group 5: intravitreal suspension, normalized by nominal dose 1.54 mg/kg
smiles,measurement,setting,value
COC(=O)N[C@@H](Cc1ccccc1)C(=O)N[C@@H](Cc1ccc(NS(=O)(=O)O)cc1)c1csc(-c2cccs2)n1 [Compound 1 free acid],vitreous humor Average Conc.,[1]; [3],0.40 ng/g
same,vitreous humor Conc. OS,[1]; [3],0.227 ng/mL
same,vitreous humor Average Conc.,"[1]; Group 3 (subcutaneous 5 mg/kg/dose, suspension), 1.0 hr",0.41 ng/g
same,vitreous humor Conc. OS,"[1]; Group 3 (subcutaneous 5 mg/kg/dose, suspension), 1.0 hr, BLOQ = below 0.2 ng/mL",BLOQ
same,vitreous humor Conc. OD,[1]; [4],BLOQ
same,vitreous humor Conc. OS,[1]; [4],BLOQ
same,vitreous humor Average Conc.,"[1]; Group 3 (subcutaneous 5 mg/kg/dose, suspension), 4.0 hr",0.41 ng/g
same,vitreous humor Conc. OD,"[1]; Group 3 (subcutaneous 5 mg/kg/dose, suspension), 4.0 hr, BLOQ = below 0.2 ng/mL",BLOQ
same,"Average Peak Concentration, Vitreous Humor",[1]; Group 3: subcutaneous 5 mg/kg/dose,0.40 ng/g
same,vitreous humor Average Conc.,[1]; [5],479750 ng/g
same,vitreous humor Conc. OD,[1]; [5],592000 ng/mL and 432000 ng/mL
same,vitreous humor Average Conc.,[1]; [6],408750 ng/g
same,vitreous humor Conc. OD,[1]; [6],296000 ng/mL and 491000 ng/mL
same,vitreous humor Conc. OS,[1]; [6],528000 ng/mL and 320000 ng/mL
same,vitreous humor Average Conc.,[1]; [7],97800 ng/g
same,vitreous humor Conc. OD,[1]; [7],75900 ng/mL and 68300 ng/mL
same,vitreous humor Conc. OS,[1]; [7],148000 ng/mL and 99000 ng/mL
same,vitreous humor Average Conc.,"[1]; Group 5 (intravitreal 2.5 mg/eye, suspension), 72 hr",65350 ng/g
same,"Average Peak Concentration, Vitreous Humor",[1]; Group 5: intravitreal 1.54 mg/kg/dose,479750 ng/g
same,plasma AUClast (± SE),[2]; [8],864 ± 69 ng·h/mL and 864 ng·h/mL
same,plasma AUC∞,[2]; [8],1198 ng·h/mL
same,plasma Cmax (± SE),[2]; [8],395 ± 170 ng/mL and 395 ng/mL
same,plasma MRTlast,[2]; [8],1.58 h
same,plasma t1/2,[2]; [8],2.12 h
same,plasma tmax,[2]; [8],0.25 h
same,plasma Average conc.,[2]; [9],395 ng/mL
same,"plasma Conc., individual rabbit",[2]; [9],225 ng/mL and 565 ng/mL
same,plasma Average conc.,[2]; [10],337 ng/mL
same,"plasma Conc., individual rabbit",[2]; [10],272 ng/mL and 401 ng/mL
same,plasma Average conc.,[2]; [11],295 ng/mL
same,"plasma Conc., individual rabbit",[2]; [11],300 ng/mL and 289 ng/mL
same,plasma Average conc.,[2]; [12],206 ng/mL
same,"plasma Conc., individual rabbit",[2]; [12],194 ng/mL and 217 ng/mL
same,plasma Average conc.,[2]; [13],110 ng/mL
same,"plasma Conc., individual rabbit",[2]; [13],111 ng/mL and 108 ng/mL
same,"plasma AUClast, dose normalized",[2]; [14],173 ± 13.8 kg·ng·h/mL/mg and 173 kg·ng·h/mL/mg
same,"plasma AUC∞, dose normalized",[2]; [14],240 kg·ng·h/mL/mg
same,plasma AUClast (± SE),[2]; [15],707 ± 53.1 ng·h/mL and 707 ng·h/mL
same,plasma AUC∞,[2]; [15],746 ng·h/mL
same,plasma Cmax (± SE),[2]; [15],25.3 ± 9.30 ng/mL and 25.3 ng/mL
same,plasma MRTlast,[2]; [15],19.1 h
same,plasma t1/2,[2]; [15],16.5 h
same,plasma tmax,[2]; [15],1.00 h
same,plasma Average conc.,[2]; [16],25.3 ng/mL
same,"plasma Conc., individual rabbit",[2]; [16],34.6 ng/mL and 16.0 ng/mL
same,plasma Average conc.,[2]; [17],24.4 ng/mL
same,"plasma Conc., individual rabbit",[2]; [17],28.4 ng/mL and 20.4 ng/mL
same,plasma Average conc.,[2]; [18],23.1 ng/mL
same,"plasma Conc., individual rabbit",[2]; [18],22.0 ng/mL and 24.1 ng/mL
same,plasma Average conc.,[2]; [19],12.3 ng/mL
same,"plasma Conc., individual rabbit",[2]; [19],9.96 ng/mL and 14.7 ng/mL
same,plasma Average conc.,[2]; [20],3.63 ng/mL
same,"plasma Conc., individual rabbit",[2]; [20],2.69 ng/mL and 4.57 ng/mL
same,plasma Average conc.,[2]; [21],1.65 ng/mL
same,"plasma Conc., individual rabbit",[2]; [21],1.83 ng/mL and 1.46 ng/mL
same,plasma tmax,"[2]; Group 5: intravitreal 2.5 mg/eye (~1.54 mg/kg), 40 mM phosphate buffer pH 4.0 suspension, listed as Compound 1 (free acid)",1 h
same,"plasma AUClast, dose normalized",[2]; [22],459 ± 34.5 kg·ng·h/mL/mg and 459 kg·ng·h/mL/mg
same,"plasma AUC∞, dose normalized",[2]; [22],484 kg·ng·h/mL/mg
COC(=O)N[C@@H](Cc1ccccc1)C(=O)N[C@@H](Cc1ccc(NS(=O)(=O)O)cc1)c1csc(-c2cccs2)n1 [Compound 1],"systemic exposure, as measured in plasma",[2]; all routes and formulations,confirmed
